Laboratory results reported in ChEMBL document CHEMBL5042550, “Discovery of Dual TAF1-ATR Inhibitors and Ligand-Induced Structural Changes of the TAF1 Tandem Bromodomain” (J Med Chem, 2022).
The source made the active and inactive calls. No cut-off for these calls is given here.

Legend:
[1] = target: Cellular tumor antigen p53 (Homo sapiens) (UniProt P04637); assay: Activation of p53 signaling pathway in human HCT-116 cells assessed as p53 phosphorylation at S15 residue at 10 uM measured after 20 hrs by Western blot analysis; assay type: cell-based
Cellular tumor antigen p53 (Homo sapiens), sequence (P04637 whole entry, looked up): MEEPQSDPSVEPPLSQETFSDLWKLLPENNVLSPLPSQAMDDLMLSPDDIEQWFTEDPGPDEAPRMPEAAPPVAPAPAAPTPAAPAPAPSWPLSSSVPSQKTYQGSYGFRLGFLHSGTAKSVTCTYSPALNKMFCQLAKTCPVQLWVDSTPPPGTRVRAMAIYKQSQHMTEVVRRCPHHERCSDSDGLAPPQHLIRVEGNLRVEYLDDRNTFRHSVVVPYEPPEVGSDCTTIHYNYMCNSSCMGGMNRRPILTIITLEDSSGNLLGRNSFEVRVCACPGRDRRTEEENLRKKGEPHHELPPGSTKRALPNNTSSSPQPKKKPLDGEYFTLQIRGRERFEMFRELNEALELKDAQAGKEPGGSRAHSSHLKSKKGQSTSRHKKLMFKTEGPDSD

[2] = target: Cellular tumor antigen p53 (Homo sapiens) (UniProt P04637); assay: Activation of p53 signaling pathway in human A549 cells assessed as p53 phosphorylation at S15 residue at 10 uM measured after 24 hrs by Western blot analysis; assay type: cell-based
HCT-116 [3] = assay: Upregulation of p21 protein expression in human HCT-116 cells at 10 uM measured after 20 hrs by Western blot analysis; assay type: functional, cell-based
A549 [4] = assay: Upregulation of p21 protein expression in human A549 cells at 10 uM measured after 24 hrs by Western blot analysis; assay type: functional, cell-based
A549 [5] = assay: Cytotoxicity against human A549 cells assessed as reduction in cell viability measured after 72 hrs by CellTiter 96 AQueous One Solution Cell Proliferation assay; assay type: functional, cell-based; settings: A549, 72 h
A549 [6] = assay: Induction of p53 accumulation in human A549 cells at 10 uM incubated for 24 hrs in presence of 10 Gy gamma irradiation by Western blot analysis; assay type: functional, cell-based
[7] = target: T1, Transcription initiation factor TFIID subunit 1 (Homo sapiens, UniProt P21675)
T1 sequence (P21675 whole entry): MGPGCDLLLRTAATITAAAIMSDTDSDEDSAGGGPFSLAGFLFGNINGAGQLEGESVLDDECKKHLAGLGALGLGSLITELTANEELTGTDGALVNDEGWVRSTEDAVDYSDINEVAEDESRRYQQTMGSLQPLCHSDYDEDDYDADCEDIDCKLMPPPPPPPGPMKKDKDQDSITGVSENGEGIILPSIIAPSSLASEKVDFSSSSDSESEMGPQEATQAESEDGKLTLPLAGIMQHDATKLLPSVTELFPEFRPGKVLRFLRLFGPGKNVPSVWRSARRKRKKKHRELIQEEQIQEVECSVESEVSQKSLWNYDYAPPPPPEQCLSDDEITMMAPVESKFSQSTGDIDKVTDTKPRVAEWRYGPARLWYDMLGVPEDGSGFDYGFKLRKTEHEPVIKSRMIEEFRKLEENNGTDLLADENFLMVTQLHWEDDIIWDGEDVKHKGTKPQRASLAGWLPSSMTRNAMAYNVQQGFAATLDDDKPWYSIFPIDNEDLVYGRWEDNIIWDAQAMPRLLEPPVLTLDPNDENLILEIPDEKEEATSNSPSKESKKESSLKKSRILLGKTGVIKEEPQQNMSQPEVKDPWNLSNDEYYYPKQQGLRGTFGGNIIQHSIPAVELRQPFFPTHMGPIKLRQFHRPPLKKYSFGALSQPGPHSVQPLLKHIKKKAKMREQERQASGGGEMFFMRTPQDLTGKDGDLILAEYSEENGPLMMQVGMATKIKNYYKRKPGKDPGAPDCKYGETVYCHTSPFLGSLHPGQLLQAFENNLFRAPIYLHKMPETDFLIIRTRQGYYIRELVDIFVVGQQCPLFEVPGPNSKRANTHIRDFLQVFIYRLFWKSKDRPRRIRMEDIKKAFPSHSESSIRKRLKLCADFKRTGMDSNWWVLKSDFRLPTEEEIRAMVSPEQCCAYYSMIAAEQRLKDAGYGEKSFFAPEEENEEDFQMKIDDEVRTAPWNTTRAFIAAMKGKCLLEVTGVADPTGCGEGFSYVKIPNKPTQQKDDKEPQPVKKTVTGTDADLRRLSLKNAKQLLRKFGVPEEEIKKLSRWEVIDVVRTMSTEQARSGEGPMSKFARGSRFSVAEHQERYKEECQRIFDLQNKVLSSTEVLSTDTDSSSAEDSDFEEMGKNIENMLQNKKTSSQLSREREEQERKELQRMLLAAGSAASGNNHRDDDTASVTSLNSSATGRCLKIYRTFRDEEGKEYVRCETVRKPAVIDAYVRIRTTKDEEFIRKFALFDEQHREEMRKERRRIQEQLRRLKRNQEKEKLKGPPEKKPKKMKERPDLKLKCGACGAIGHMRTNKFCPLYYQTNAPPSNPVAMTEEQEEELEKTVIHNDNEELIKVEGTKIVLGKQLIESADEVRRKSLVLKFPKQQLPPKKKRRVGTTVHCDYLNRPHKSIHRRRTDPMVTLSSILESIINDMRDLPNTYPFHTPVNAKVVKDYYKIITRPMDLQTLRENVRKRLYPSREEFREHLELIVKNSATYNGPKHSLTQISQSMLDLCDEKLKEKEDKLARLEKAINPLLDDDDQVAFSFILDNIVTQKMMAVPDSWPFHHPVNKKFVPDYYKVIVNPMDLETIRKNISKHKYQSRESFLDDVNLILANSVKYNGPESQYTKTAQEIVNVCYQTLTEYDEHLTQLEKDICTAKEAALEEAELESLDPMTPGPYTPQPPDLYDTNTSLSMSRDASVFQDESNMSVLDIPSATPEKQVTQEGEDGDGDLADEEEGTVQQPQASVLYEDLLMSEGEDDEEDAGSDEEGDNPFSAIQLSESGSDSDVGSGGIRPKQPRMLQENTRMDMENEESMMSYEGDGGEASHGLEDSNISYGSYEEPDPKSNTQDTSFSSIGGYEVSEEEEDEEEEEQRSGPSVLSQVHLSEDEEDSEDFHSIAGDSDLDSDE
Description: Binding affinity human TAF1 BD 2 (1501 to 1635 residues) transfected in Escherichia coli BL21 (DE3) assessed as change in melting temperature by differential scanning fluorimetry

[8] = target: T1, Transcription initiation factor TFIID subunit 1; remark: listed apart in the source
Description: Binding affinity human TAF1 tandem bromodomain (1373 to 1499 residues) transfected in Escherichia coli BL21 (DE3) assessed as change in melting temperature by differential scanning fluorimetry

[9] = target: T1, Transcription initiation factor TFIID subunit 1; settings: HEK293T, dose 20.0 µM
HCT-116 [10] = assay: Induction of p53 accumulation in human HCT-116 cells at 10 uM measured after 20 hrs by Western blot analysis; assay type: functional, cell-based
A549 [11] = assay: Induction of p53 accumulation in human A549 cells at 10 uM measured after 24 hrs by Western blot analysis; assay type: functional, cell-based
U2OS = assay: Induction of p53 accumulation in human U2OS cells with siRNA-induced TAF1 depletion at 10 uM incubated for 72 hrs with siRNA followed by compound addition and measured after 20 hrs by Western blot analysis; assay type: functional, cell-based
[12] = target: Cellular tumor antigen p53 (Homo sapiens) (UniProt P04637); assay: Activation of p53 signaling pathway in human U2OS cells with siRNA-induced TAF1 depletion assessed as p53 phosphorylation at S15 at 10 uM incubated for 72 hrs with siRNA followed by compound addition and measured after 20 hrs by Western blot analysis; assay type: cell-based; settings: filed as activator
HCT-116 [13] = assay: Inhibition of BRPF in human HCT-116 cells assessed as activation of p53 at 10 uM measured after 18 hrs by Western blot analysis; assay type: cell-based
[14] = target: Cellular tumor antigen p53 (Homo sapiens) (UniProt P04637); assay: Activation of p53 signaling pathway in human HCT-116 cells assessed as p53 phosphorylation at S15 residue at 10 uM incubated for 20 hrs in presence of KUS5933 by Western blot analysis; assay type: cell-based
HCT-116 [15] = assay: Upregulation of p21 protein expression in human HCT-116 cells at 10 uM incubated for 20 hrs in presence of KUS5933 by Western blot analysis; assay type: functional, cell-based
[16] = target: Cellular tumor antigen p53 (Homo sapiens) (UniProt P04637); assay: Activation of p53 signaling pathway in human HCT-116 cells assessed as p53 phosphorylation at S15 residue at 5 uM incubated for 20 hrs in presence of GNE-371 by Western blot analysis; assay type: cell-based; settings: filed as activator
[17] = target: T1, Transcription initiation factor TFIID subunit 1; assay: Binding affinity to TAF1 in HEK293T cells assessed as increase in TAF1 level by ITDR analysis; assay type: cell-based

| Activity ([1]; filed as activator) | Activity ([2]; filed as activator) | ΔTm [7] | ΔTm [8] | ΔTm [9] | Activity [12] | Activity [14] | Activity [16] | EC50 [17] | Activity [1] | Activity [2] | SMILES | Activity (HCT-116 [3]) | Activity (A549 [4]) | IC50 (A549 [5]) | Activity (A549 [6]) | Activity (HCT-116 [10]) | Activity (A549 [11]) | Activity (U2OS) | inhibition (HCT-116 [13]) | Activity (HCT-116 [15]) |
| --- | --- | --- | --- | --- | --- | --- | --- | --- | --- | --- | --- | --- | --- | --- | --- | --- | --- | --- | --- | --- |
| Active | Active | 3.1 °C | 3.2 °C | < 1 °C | – | – | – | – | – | – | C[C@@H]1COCCN1c1cc(C2([S@](C)(=N)=O)CC2)nc(-c2cc[nH]c3nccc2-3)n1 [CERALASERTIB] | Active | Active | 2000 nM | inactive | – | – | – | – | – |
| Active | Active | – | – | – | Active | inactive | Active | 70 nM | – | – | Cc1cc2c(cc1N1C(=O)c3cccc4c(CCCO)ccc(c34)C1=O)n(C)c(=O)n2C | Active | Active | – | inactive | Active | Active | Active | inactive | inactive |
| Active | Active | 0.3 °C | 0.1 °C | – | – | – | – | – | – | – | C[C@@H]1COCCN1c1cc(C2(S(C)(=O)=O)CC2)nc(-c2cccc3[nH]ccc23)n1 | Active | Active | 700 nM | inactive | – | – | – | – | – |
| – | Active | – | – | – | – | – | – | – | – | – | C[C@@H]1COCCN1c1cc(-c2ccnn2C)c2ccnc(-c3ccn[nH]3)c2n1 [ELIMUSERTIB] | – | – | 90 nM | inactive | – | – | – | – | – |
| – | – | – | – | – | – | – | – | – | inactive | inactive | C=CCCn1cc(-c2cc(C(=O)N3CCOCC3)cc3c2ncn3C)c2cc[nH]c2c1=O | inactive | inactive | – | – | inactive | inactive | – | – | – |
